As a reminder, the fold induction is the signal under treatment as a multiple of the control signal.

Each structure is given as a SMILES string.

The assay addresses T1, farnesol X receptor (FXR) (Homo sapiens, UniProt Q96RI1).
T1 construct: endogenous in cells; host or cells: HepG2
T1 sequence (Q96RI1 1-486): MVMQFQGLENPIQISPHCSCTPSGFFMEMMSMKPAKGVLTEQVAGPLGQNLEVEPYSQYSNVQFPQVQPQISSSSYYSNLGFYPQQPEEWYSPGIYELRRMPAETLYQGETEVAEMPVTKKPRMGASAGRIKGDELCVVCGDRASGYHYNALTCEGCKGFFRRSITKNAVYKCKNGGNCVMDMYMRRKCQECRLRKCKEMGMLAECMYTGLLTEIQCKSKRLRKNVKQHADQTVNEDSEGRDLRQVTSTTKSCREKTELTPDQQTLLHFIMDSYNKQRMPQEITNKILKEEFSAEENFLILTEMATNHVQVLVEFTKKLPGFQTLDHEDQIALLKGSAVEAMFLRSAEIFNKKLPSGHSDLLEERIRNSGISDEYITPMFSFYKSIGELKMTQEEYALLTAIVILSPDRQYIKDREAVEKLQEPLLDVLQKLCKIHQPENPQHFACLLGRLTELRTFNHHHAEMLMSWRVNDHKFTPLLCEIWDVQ
Briefly: Farnesol X receptor (FXR) reporter gene assay (dual luciferase) in HepG2 cells. It is filed as cell-based. The following applies: for fold induction at 10 µM: HepG2 cells, drug treatment 24 hours, firefly/renilla luciferase ratio, Con = 1.00; for FXR activating effect compared with GW4064: statement on Table 4 data. As to the method:
HepG2 cells were purchased from ATCC (Manassas, VA, USA) and cultured in Dulbecco's modified Eagle's medium (DMEM; Hyclone) containing 10% fetal bovine serum (FBS, Hyclone, Logan, UT, USA), 50 units/mL penicillin (Hyclone) and 50 μg/mL streptomycin (Hyclone). All cells were cultured to have a confluency of about 80% to 90% under the conditions of 37° C. and 5% Co2.
In order to measure FXR transcription factor activity, HepG2 cells (1×10^5 cells/well) were cultured in a 48-well cell culture plate (SPL Life Science Co., Gyeonggido, Korea) for 20 hours and then transduced using Lipofectamin L3000 (Invitrogen, San Diego, CA, USA). Luciferase is an enzyme that catalyzes light-emitting reactions. A plasmid in which the firefly luciferase gene was fused to farnesol X receptor (FXR) and a plasmid in which the renilla luciferase gene was fused to thymidine kinase (TK) were used for transduction. Reacted were 25 μL of serum and antibiotic-free Opti-MEM® (Life Technologies, Grand Island, NY) and 0.5 μL of Lipofectamin L3000 per 0.5 μg of FXR-firefly luciferase plasmid and 10 ng of TK-renilla luciferase plasmid, and the cells were reacted with the reaction mixture for 24 hours. Thereafter, DMEM medium containing 0.1% serum was treated with a drug for 24 hours. After the reaction was completed, the drug-treated culture medium was discarded, and lysis buffer was added at 0.4 ml/well to remove the cells, then the cells were dispensed into a 96-well white plate (SPL Life Science Co.), and the luminescence level was measured using the Dual-glo Luciferase Assay System (Promega, Madison, WI, USA). For the firefly luciferase activity (to see the level of FXR expression) and renilla luciferase activity (to provide a reference value by showing constant expression), the luminescence level was measured using the GloMax Multi Detection System (Promega) and then the relative ratio (firefly luciferase activity/renilla luciferase activity) was calculated.

As to `CCOC(=O)[C@H](C)NC(=O)/C=C/c1ccc(OCc2c(-c3c(Cl)cccc3Cl)noc2C(C)C)cc1` [KS-025, ethyl (E)-(3-(4-((3-(2,6-dichlorophenyl)-5-isopropylisoxazol-4-yl)methoxy)phenyl)acryloyl)-L-alaninate], the fold induction at 10 µM amounted to 10.9 and the “FXR activating effect compared with GW4064” value is recorded as “superior to GW4064”.

Turning to `CC(C)c1onc(-c2c(Cl)cccc2Cl)c1COc1ccc(/C=C/C(=O)NCCC(=O)O)cc1` [KS-046, (E)-3-(3-(4-((3-(2,6-dichlorophenyl)-5-isopropylisoxazol-4-yl)methoxy)phenyl)acrylamido)propanoic acid], the fold induction at 10 µM was found to be 11.4 and the “FXR activating effect compared with GW4064” value is on record as “superior to GW4064”.

Regarding `CCOC(=O)CNC(=O)/C=C/c1ccc(OCc2ccccc2)cc1` [KS-002, ethyl (E)-(3-(4-(benzyloxy)phenyl)acryloyl)glycinate], the fold induction at 10 µM was found to be 1.22.

For the compound `COC(=O)[C@H](Cc1ccccc1)NC(=O)/C=C/c1ccc(OCc2c(-c3c(Cl)cccc3Cl)noc2C(C)C)cc1` [KS-037, methyl (E)-(3-(4-((3-(2,6-dichlorophenyl)-5-isopropylisoxazol-4-yl)methoxy)phenyl)acryloyl)-L-phenylalaninate], the fold induction at 10 µM stood at 7.95 and the “FXR activating effect compared with GW4064” value is recorded as “superior to GW4064”.

Turning to `Cc1onc(-c2c(Cl)cccc2Cl)c1COc1ccc(/C=C/C(=O)NCC(=O)O)cc1` [KS-023, (E)-(3-(4-((3-(2,6-dichlorophenyl)-5-methylisoxazol-4-yl)methoxy)phenyl)acryloyl)glycine], the fold induction at 10 µM amounted to 1.93.

Take `CCOC(=O)CNC(=O)/C=C/c1ccc(OCc2cccc([N+](=O)[O-])c2)cc1` [KS-008, ethyl (E)-(3-(4-((3-nitrobenzyl)oxy)phenyl)acryloyl)glycinate]: the fold induction at 10 µM was found to be 1.5.

`CCOC(=O)[C@H](C)NC(=O)/C=C/c1ccc(OCc2c(-c3ccccc3)noc2C)cc1` [KS-027, ethyl (E)-(3-(4-((5-methyl-3-phenylisoxazol-4-yl)methoxy)phenyl)acryloyl)-L-alaninate]: the fold induction at 10 µM came to 1.04.

Regarding `COC(=O)[C@@H](C)NC(=O)/C=C/c1ccc(OCc2c(-c3c(Cl)cccc3Cl)noc2C)cc1` [KS-050, methyl (E)-(3-(4-((3-(2,6-dichlorophenyl)-5-methylisoxazol-4-yl)methoxy)phenyl)acryloyl)-D-alaninate], the fold induction at 10 µM is 2.

Take `O=C(O)CNC(=O)/C=C/c1ccc(OCc2ccc(F)cc2)cc1` [KS-017, (E)-(3-(4-((4-fluorobenzyl)oxy)phenyl)acryloyl)glycine]: the fold induction at 10 µM was 1.14.

Regarding `COC(=O)[C@H](Cc1ccccc1)NC(=O)/C=C/c1ccc(OCc2c(-c3ccccc3)noc2C)cc1` [KS-039, methyl (E)-(3-(4-((5-methyl-3-phenylisoxazol-4-yl)methoxy)phenyl)acryloyl)-L-phenylalaninate], the fold induction at 10 µM was 1.06.

As to `CCOC(=O)CNC(=O)/C=C/c1ccc(OCc2cc(F)c(F)cc2F)cc1` [KS-009, ethyl (E)-(3-(4-((2,4,5-trifluorobenzyl)oxy)phenyl)acryloyl)glycinate], the fold induction at 10 µM is 1.44.

In the case of `COC(=O)CCNC(=O)/C=C/c1ccc(OCc2c(-c3ccccc3)noc2C)cc1` [KS-045, methyl (E)-3-(3-(4-((5-methyl-3-phenylisoxazol-4-yl)methoxy)phenyl)acrylamido)propanoate], the fold induction at 10 µM amounted to 1.2.

On to `COC(=O)[C@H](Cc1ccccc1)NC(=O)/C=C/c1ccc(OCc2c(-c3c(Cl)cccc3Cl)noc2C)cc1` [KS-038, methyl (E)-(3-(4-((3-(2,6-dichlorophenyl)-5-methylisoxazol-4-yl)methoxy)phenyl)acryloyl)-L-phenylalaninate], for which the fold induction at 10 µM was determined as 2.21.

For the compound `Cc1onc(-c2ccccc2)c1COc1ccc(/C=C/C(=O)N[C@@H](Cc2ccccc2)C(=O)O)cc1` [KS-042, (E)-(3-(4-((5-methyl-3-phenylisoxazol-4-yl)methoxy)phenyl)acryloyl)-L-phenylalanine], the fold induction at 10 µM came out at 1.41.

In the case of `CCOC(=O)CNC(=O)/C=C/c1ccc(OCc2c(-c3ccccc3)noc2C)cc1` [KS-012, ethyl (E)-(3-(4-((5-methyl-3-phenylisoxazol-4-yl)methoxy)phenyl)acryloyl)glycinate], the fold induction at 10 µM was 1.61.

In the case of `CCOC(=O)CNC(=O)/C=C/c1ccc(OCc2c(-c3c(Cl)cccc3Cl)noc2C)cc1` [KS-011, ethyl (E)-(3-(4-((3-(2,6-dichlorophenyl)-5-methylisoxazol-4-yl)methoxy)phenyl)acryloyl)glycinate], the fold induction at 10 µM was 1.65.

As for `Cc1onc(-c2ccccc2)c1COc1ccc(/C=C/C(=O)NCCC(=O)O)cc1` [KS-048, (E)-3-(3-(4-((5-methyl-3-phenylisoxazol-4-yl)methoxy)phenyl)acrylamido)propanoic acid], the fold induction at 10 µM came out at 1.13.

As to `CCOC(=O)CNC(=O)/C=C/c1ccc(OCc2ccc(OC(F)(F)F)cc2)cc1` [KS-003, ethyl (E)-(3-(4-((4-(trifluoromethoxy)benzyl)oxy)phenyl)acryloyl)glycinate], the fold induction at 10 µM is 1.1.

In the case of `Cc1onc(-c2c(Cl)cccc2Cl)c1COc1ccc(/C=C/C(=O)N[C@@H](C)C(=O)O)cc1` [KS-029, (E)-(3-(4-((3-(2,6-dichlorophenyl)-5-methylisoxazol-4-yl)methoxy)phenyl)acryloyl)-L-alanine], the fold induction at 10 µM was determined as 1.71.

As to `Cc1onc(-c2c(Cl)cccc2Cl)c1COc1ccc(/C=C/C(=O)NCCC(=O)O)cc1` [KS-047, (E)-3-(3-(4-((3-(2,6-dichlorophenyl)-5-methylisoxazol-4-yl)methoxy)phenyl)acrylamido)propanoic acid], the fold induction at 10 µM is 3.04.

Consider `Cc1onc(-c2c(Cl)cccc2Cl)c1COc1ccc(/C=C/C(=O)N[C@H](C)C(=O)O)cc1` [KS-053, (E)-(3-(4-((3-(2,6-dichlorophenyl)-5-methylisoxazol-4-yl)methoxy)phenyl)acryloyl)-D-alanine], for which the fold induction at 10 µM amounted to 1.28.

In the case of `CCOC(=O)CNC(=O)/C=C/c1ccc(OCc2ccc([N+](=O)[O-])cc2)cc1` [KS-006, ethyl (E)-(3-(4-((4-nitrobenzyl)oxy)phenyl)acryloyl)glycinate], the fold induction at 10 µM worked out at 1.38.

Consider `O=C(O)CNC(=O)/C=C/c1ccc(OCc2cc(F)c(F)cc2F)cc1` [KS-021, (E)-(3-(4-((2,4,5-trifluorobenzyl)oxy)phenyl)acryloyl)glycine], for which the fold induction at 10 µM stood at 2.01.

Regarding `O=C(O)CNC(=O)/C=C/c1ccc(OCc2cccc(OC(F)(F)F)c2)cc1` [KS-019, (E)-(3-(4-((3-(trifluoromethoxy)benzyl)oxy)phenyl)acryloyl)glycine], the fold induction at 10 µM came out at 1.19.

For the compound `CCOC(=O)[C@H](C)NC(=O)/C=C/c1ccc(OCc2c(-c3c(Cl)cccc3Cl)noc2C)cc1` [KS-026, ethyl (E)-(3-(4-((3-(2,6-dichlorophenyl)-5-methylisoxazol-4-yl)methoxy)phenyl)acryloyl)-L-alaninate], the fold induction at 10 µM turned out to be 1.26.

Regarding `Cc1onc(-c2ccccc2)c1COc1ccc(/C=C/C(=O)N[C@H](C)C(=O)O)cc1` [KS-054, (E)-(3-(4-((5-methyl-3-phenylisoxazol-4-yl)methoxy)phenyl)acryloyl)-D-alanine], the fold induction at 10 µM was 0.9.

As to `Cc1onc(-c2ccccc2)c1COc1ccc(/C=C/C(=O)N[C@H](C(=O)O)C(C)C)cc1` [KS-036, (E)-(3-(4-((5-methyl-3-phenylisoxazol-4-yl)methoxy)phenyl)acryloyl)-L-valine], the fold induction at 10 µM is 1.24.

Take `CCOC(=O)CNC(=O)/C=C/c1ccc(OCc2cccc(OC(F)(F)F)c2)cc1` [KS-007, ethyl (E)-(3-(4-((3-(trifluoromethoxy)benzyl)oxy)phenyl)acryloyl)glycinate]: the fold induction at 10 µM was 1.02.

With `Cc1onc(-c2c(Cl)cccc2Cl)c1COc1ccc(/C=C/C(=O)N[C@H](C(=O)O)C(C)C)cc1` [KS-035, (E)-(3-(4-((3-(2,6-dichlorophenyl)-5-methylisoxazol-4-yl)methoxy)phenyl)acryloyl)-L-valine], the fold induction at 10 µM was found to be 1.65.

The values are drawn from US12552755B2, “Cinnamic amide derivative having FXR activating effect, pharmaceutical composition containing the same as active ingredient, and method for preparing the same” (KYUNGSUNG UNIVERSITY INDUSTRY COOPERATION FOUNDATION, priority 2019, dated 2026).
